From ChEMBL document CHEMBL1201861, “Genomics of Drug Sensitity in Cancer screening data, Wellcome Trust Sanger Institute”

Columns and labels:
Assay in all cases: cells
TCC-SUP = type: functional, cell-based, Homo sapiens; conditions: Homo sapiens, TCC-SUP;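 note: growth inhibition of TCC-SUP cells, read out with a cell viability assay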
Description: SANGER: Inhibition of human TCCSUP cell growth in a cell viability assay.

SBC-5 = type: functional, cell-based, Homo sapiens; conditions: Homo sapiens, SBC-5;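 note: cell viability assay read-out, IC50 is the concentration that inhibits growth of the cells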
Description: SANGER: Inhibition of human SBC-5 cell growth in a cell viability assay.

M14 = type: functional, cell-based, Homo sapiens; conditions: Homo sapiens, M14;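 note: growth inhibition of M14 cells, read out with a cell viability assay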
Description: SANGER: Inhibition of human M14 cell growth in a cell viability assay.

VMRC-RCZ = type: functional, cell-based; conditions: Homo sapiens;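 note: growth inhibition measured with a cell viability assay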
Description: SANGER: Inhibition of human VMRC-RCZ cell growth in a cell viability assay.

SNB-75 = type: functional, cell-based, Homo sapiens; conditions: Homo sapiens, SNB-75;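 note: cell viability assay measuring growth inhibition of human SNB-75 cells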
Description: SANGER: Inhibition of human SNB75 cell growth in a cell viability assay.

ES7 = type: functional, cell-based, Homo sapiens; conditions: Homo sapiens, ES7;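 note: growth inhibition of cultured human ES7 cells, read out as cell viability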
Description: SANGER: Inhibition of human ES7 cell growth in a cell viability assay.

CHP-212 = type: functional, cell-based, Homo sapiens; conditions: Homo sapiens, CHP-212
Description: SANGER: Inhibition of human CHP-212 cell growth in a cell viability assay.

KYSE-150 cell line = type: functional, cell-based, Homo sapiens; conditions: Homo sapiens, KYSE-150;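 note: growth inhibition of human KYSE-150 cells, read out with a cell viability assay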
Description: SANGER: Inhibition of human KYSE-150 cell growth in a cell viability assay.

LOX IMVI = type: functional, cell-based; conditions: Homo sapiens
Description: SANGER: Inhibition of human LOXIMVI cell growth in a cell viability assay.

SW1990 = type: functional, cell-based, Homo sapiens; conditions: Homo sapiens, SW1990;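 note: cell growth inhibition determined with a viability assay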
Description: SANGER: Inhibition of human SW1990 cell growth in a cell viability assay.

HCT-116 = type: functional, cell-based, Homo sapiens; conditions: Homo sapiens, HCT-116
Description: SANGER: Inhibition of human HCT-116 cell growth in a cell viability assay.

MZ2-MEL = type: functional, cell-based, Homo sapiens; conditions: Homo sapiens, MZ2-MEL;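 note: growth inhibition of MZ2-MEL cells read out with a cell viability assay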
Description: SANGER: Inhibition of human MZ2-MEL cell growth in a cell viability assay.

NCI-H226 = type: functional, cell-based, Homo sapiens; conditions: Homo sapiens, NCI-H226;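 note: cell viability read-out used to gauge growth inhibition of the cells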
Description: SANGER: Inhibition of human NCI-H226 cell growth in a cell viability assay.

DMS-114 = type: functional, cell-based, Homo sapiens; conditions: Homo sapiens, DMS-114
NUGC-3 = type: functional, cell-based, Homo sapiens; conditions: Homo sapiens, NUGC-3;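 note: growth inhibition of human NUGC-3 cells, read out with a cell viability assay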
Description: SANGER: Inhibition of human NUGC-3 cell growth in a cell viability assay.

DSH1 = type: functional, cell-based, Homo sapiens; conditions: Homo sapiens, DSH1;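 note: growth inhibition of human DSH1 cells, measured with a cell viability readout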
Description: SANGER: Inhibition of human DSH1 cell growth in a cell viability assay.

Lu-65 = type: functional, cell-based; conditions: Homo sapiens;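 note: growth inhibition of Lu-65 cancer cells, read out by a cell viability assay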
Description: SANGER: Inhibition of human LU-65 cell growth in a cell viability assay.

SNU1 = type: functional, cell-based; conditions: Homo sapiens;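 note: growth inhibition of human NCI-SNU-1 cells, measured with a cell viability assay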
Description: SANGER: Inhibition of human NCI-SNU-1 cell growth in a cell viability assay.

KM12 = type: functional, cell-based, Homo sapiens; conditions: Homo sapiens, KM12;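 note: KM12 cell growth inhibition, read out with a cell viability assay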
Description: SANGER: Inhibition of human KM12 cell growth in a cell viability assay.

SW1573 = type: functional, cell-based, Homo sapiens; conditions: Homo sapiens, SW1573;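 note: growth inhibition of SW1573 cells, read out with a cell viability assay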
Description: SANGER: Inhibition of human SW1573 cell growth in a cell viability assay.

MHH-PREB-1 = type: functional, cell-based; conditions: Homo sapiens;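 note: cell viability assay measuring inhibition of proliferation of human MHH-PREB-1 cells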
Description: SANGER: Inhibition of human MHH-PREB-1 cell growth in a cell viability assay.

ES4 = type: functional, cell-based, Homo sapiens; conditions: Homo sapiens, ES4;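 note: growth inhibition of human ES4 cells, read out by a cell viability assay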
Description: SANGER: Inhibition of human ES4 cell growth in a cell viability assay.

NCI-H82 = type: functional, cell-based; conditions: Homo sapiens;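 note: growth inhibition of NCI-H82 cells, measured with a cell viability readout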
Description: SANGER: Inhibition of human NCI-H82 cell growth in a cell viability assay.

BV-173 = type: functional, cell-based; conditions: Homo sapiens
Description: SANGER: Inhibition of human BV-173 cell growth in a cell viability assay.

MFE-280 = type: functional, cell-based, Homo sapiens; conditions: Homo sapiens, MFE-280;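 note: growth inhibition of MFE-280 cells, determined with a cell viability readout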
Description: SANGER: Inhibition of human MFE-280 cell growth in a cell viability assay.

MDA-MB-157 = type: functional, cell-based, Homo sapiens; conditions: Homo sapiens, MDA-MB-157
Description: SANGER: Inhibition of human MDA-MB-157 cell growth in a cell viability assay.

no-11 = type: functional, cell-based, Homo sapiens; conditions: Homo sapiens;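 note: growth inhibition of human NO-11 cells, read out with a cell viability assay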
Description: SANGER: Inhibition of human no-11 cell growth in a cell viability assay.

SW13 = type: functional, cell-based, Homo sapiens; conditions: Homo sapiens, SW13;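 note: IC50 is inhibition of SW13 cell growth, read out with a cell viability assay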
Description: SANGER: Inhibition of human SW13 cell growth in a cell viability assay.

KU812 cell line = type: functional, cell-based; conditions: Homo sapiens;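 note: growth inhibition of KU812 cells, read out with a cell viability assay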
Description: SANGER: Inhibition of human KU812 cell growth in a cell viability assay.

VM-CUB-1 = type: functional, cell-based; conditions: Homo sapiens;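 note: cell viability assay measuring growth inhibition of the human VM-CUB-1 cell line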
Description: SANGER: Inhibition of human VM-CUB-1 cell growth in a cell viability assay.

LB2241-RCC = type: functional, cell-based, Homo sapiens; conditions: Homo sapiens, LB2241-RCC;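 note: cell viability assay measuring how strongly the cultured human renal carcinoma line is prevented from growing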
Description: SANGER: Inhibition of human LB2241-RCC cell growth in a cell viability assay.

SK-MEL-2 = type: functional, cell-based, Homo sapiens; conditions: Homo sapiens, SK-MEL-2;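 note: growth inhibition of human SK-MEL-2 cells measured with a cell viability assay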
Description: SANGER: Inhibition of human SK-MEL-2 cell growth in a cell viability assay.

NCI-H661 = type: functional, cell-based, Homo sapiens; conditions: Homo sapiens, NCI-H661;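 note: cell viability assay read-out, IC50 being the concentration that inhibits growth of the cells by half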
Description: SANGER: Inhibition of human NCI-H661 cell growth in a cell viability assay.

SJSA-1 = type: functional, cell-based, Homo sapiens; conditions: Homo sapiens, SJSA-1;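 note: growth inhibition of human SJSA-1 cells, read out through a cell viability measurement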
Description: SANGER: Inhibition of human SJSA-1 cell growth in a cell viability assay.

NCI-H1623 = type: functional, cell-based, Homo sapiens; conditions: Homo sapiens, NCI-H1623;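 note: cell viability assay used as the read-out for growth inhibition of NCI-H1623 cells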
Description: SANGER: Inhibition of human NCI-H1623 cell growth in a cell viability assay.

no-10 = type: functional, cell-based, Homo sapiens; conditions: Homo sapiens;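 note: growth inhibition of no-10 cells, read out with a cell viability assay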
Description: SANGER: Inhibition of human no-10 cell growth in a cell viability assay.

SCH = type: functional, cell-based, Homo sapiens; conditions: Homo sapiens, SCH;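 note: growth inhibition of human SCH cells, read out in a cell viability assay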
Description: SANGER: Inhibition of human SCH cell growth in a cell viability assay.

BFTC-909 = type: functional, cell-based, Homo sapiens; conditions: Homo sapiens, BFTC-909
Description: SANGER: Inhibition of human BFTC-909 cell growth in a cell viability assay.

KALS-1 = type: functional, cell-based, Homo sapiens; conditions: Homo sapiens, KALS-1;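 note: growth inhibition of KALS-1 cells, determined with a cell viability assay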
Description: SANGER: Inhibition of human KALS-1 cell growth in a cell viability assay.

HuCCT-1 = type: functional, cell-based, Homo sapiens, HuCCT1; conditions: Homo sapiens, HuCCT-1;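 note: growth inhibition of HuCCT-1 cells, read out by a cell viability assay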
Description: SANGER: Inhibition of human HuCCT1 cell growth in a cell viability assay.

JEG-3 = type: functional, cell-based, Homo sapiens; conditions: Homo sapiens, JEG-3;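 note: growth inhibition of human JEG-3 cells, read out with a cell viability assay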
Description: SANGER: Inhibition of human JEG-3 cell growth in a cell viability assay.

CHL-1 = type: functional, cell-based, Homo sapiens; conditions: Homo sapiens, CHL-1;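 note: cell growth inhibition, read out with a cell viability assay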
Description: SANGER: Inhibition of human CHL-1 cell growth in a cell viability assay.

HN = type: functional, cell-based, Homo sapiens; conditions: Homo sapiens, HN
Description: SANGER: Inhibition of human HN cell growth in a cell viability assay.

HT-1080 = type: functional, cell-based, Homo sapiens; conditions: Homo sapiens, HT-1080
Description: SANGER: Inhibition of human HT-1080 cell growth in a cell viability assay.

L-428 = type: functional, cell-based; conditions: Homo sapiens
Description: SANGER: Inhibition of human L-428 cell growth in a cell viability assay.

CAL-54 = type: functional, cell-based, Homo sapiens; conditions: Homo sapiens, CAL-54;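 note: growth inhibition of CAL-54 cells, read out by a viability measurement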
Description: SANGER: Inhibition of human CAL-54 cell growth in a cell viability assay.

OVCAR-3 = type: functional, cell-based, Homo sapiens; conditions: Homo sapiens, OVCAR-3;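 note: growth inhibition of human OVCAR-3 cells, determined by a cell viability assay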
Description: SANGER: Inhibition of human OVCAR-3 cell growth in a cell viability assay.

NCI-H1993 = type: functional, cell-based, Homo sapiens; conditions: Homo sapiens, NCI-H1993;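 note: growth inhibition of the cancer cell line, assessed with a cell viability assay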
Description: SANGER: Inhibition of human NCI-H1993 cell growth in a cell viability assay.

RCC10RGB = type: functional, cell-based, Homo sapiens; conditions: Homo sapiens, RCC10RGB;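 note: growth inhibition of human RCC10RGB cells, read out by a cell viability assay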
Description: SANGER: Inhibition of human RCC10RGB cell growth in a cell viability assay.

C32 = type: functional, cell-based, Homo sapiens; conditions: Homo sapiens, C32;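 note: cell viability assay, with IC50 reflecting inhibition of C32 cell growth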
Description: SANGER: Inhibition of human C32 cell growth in a cell viability assay.

O=C(NOCC1CC1)c1ccc(F)c(F)c1Nc1ccc(I)cc1Cl [CI-1040]
IC50 (TCC-SUP): > 10000 nM | IC50 (SBC-5): > 10000 nM | IC50 (M14): 155 nM | IC50 (VMRC-RCZ): > 10000 nM | IC50 (SNB-75): > 10000 nM | IC50 (ES7): > 10000 nM | IC50 (CHP-212): 28.9 nM | IC50 (KYSE-150 cell line): > 10000 nM | IC50 (LOX IMVI): 1890 nM | IC50 (SW1990): > 10000 nM | IC50 (HCT-116): 6810 nM | IC50 (MZ2-MEL): 2110 nM | IC50 (NCI-H226): > 10000 nM | IC50 (DMS-114): > 10000 nM | IC50 (NUGC-3): 5490 nM | IC50 (DSH1): > 10000 nM | IC50 (Lu-65): > 10000 nM | IC50 (SNU1): 754 nM | IC50 (KM12): 241 nM | IC50 (SW1573): > 10000 nM | IC50 (MHH-PREB-1): 4120 nM | IC50 (ES4): 8870 nM | IC50 (NCI-H82): > 10000 nM | IC50 (BV-173): 1440 nM | IC50 (MFE-280): 6860 nM | IC50 (MDA-MB-157): > 10000 nM | IC50 (no-11): > 10000 nM | IC50 (SW13): > 10000 nM | IC50 (KU812 cell line): 453 nM | IC50 (VM-CUB-1): > 10000 nM | IC50 (LB2241-RCC): 2860 nM | IC50 (SK-MEL-2): 1570 nM | IC50 (NCI-H661): > 10000 nM | IC50 (SJSA-1): > 10000 nM | IC50 (NCI-H1623): > 10000 nM | IC50 (no-10): > 10000 nM | IC50 (SCH): > 10000 nM | IC50 (BFTC-909): > 10000 nM | IC50 (KALS-1): > 10000 nM | IC50 (HuCCT-1): 7010 nM | IC50 (JEG-3): > 10000 nM | IC50 (CHL-1): 2810 nM | IC50 (HN): 2160 nM | IC50 (HT-1080): 3020 nM | IC50 (L-428): > 10000 nM | IC50 (CAL-54): 5030 nM | IC50 (OVCAR-3): > 10000 nM | IC50 (NCI-H1993): > 10000 nM | IC50 (RCC10RGB): > 10000 nM | IC50 (C32): 191 nM

Nc1ccn([C@@H]2O[C@H](CO)[C@@H](O)[C@@H]2O)c(=O)n1 [CYTARABINE]
IC50 (TCC-SUP): > 2000 nM | IC50 (SBC-5): > 2000 nM | IC50 (M14): 632 nM | IC50 (VMRC-RCZ): 1350 nM | IC50 (SNB-75): > 2000 nM | IC50 (ES7): 257 nM | IC50 (CHP-212): 33.5 nM | IC50 (KYSE-150 cell line): > 2000 nM | IC50 (LOX IMVI): 290 nM | IC50 (SW1990): > 2000 nM | IC50 (HCT-116): 245 nM | IC50 (MZ2-MEL): 1430 nM | IC50 (NCI-H226): > 2000 nM | IC50 (DMS-114): 1680 nM | IC50 (NUGC-3): 589 nM | IC50 (DSH1): > 2000 nM | IC50 (Lu-65): > 2000 nM | IC50 (SNU1): 96.8 nM | IC50 (KM12): > 2000 nM | IC50 (SW1573): > 2000 nM | IC50 (MHH-PREB-1): 533 nM | IC50 (ES4): 214 nM | IC50 (NCI-H82): > 2000 nM | IC50 (BV-173): 516 nM | IC50 (MFE-280): > 2000 nM | IC50 (MDA-MB-157): 1390 nM | IC50 (no-11): > 2000 nM | IC50 (SW13): 476 nM | IC50 (KU812 cell line): > 2000 nM | IC50 (VM-CUB-1): 533 nM | IC50 (LB2241-RCC): 55.3 nM | IC50 (SK-MEL-2): > 2000 nM | IC50 (NCI-H661): 1730 nM | IC50 (SJSA-1): 235 nM | IC50 (NCI-H1623): 536 nM | IC50 (no-10): > 2000 nM | IC50 (SCH): > 2000 nM | IC50 (BFTC-909): 357 nM | IC50 (KALS-1): > 2000 nM | IC50 (HuCCT-1): > 2000 nM | IC50 (JEG-3): 431 nM | IC50 (CHL-1): 1040 nM | IC50 (HN): 221 nM | IC50 (HT-1080): 114 nM | IC50 (L-428): > 2000 nM | IC50 (CAL-54): 940 nM | IC50 (OVCAR-3): > 2000 nM | IC50 (NCI-H1993): > 2000 nM | IC50 (RCC10RGB): > 2000 nM | IC50 (C32): > 2000 nM
